{"source": "patent US7230085B2", "about": "“Anti-DOTA antibody” (Immunomedics, Inc., priority 2001, dated 2007)", "molecules": {"B1": {"name": "Fab fragment of LG1: Fab fragment from ficin digestion of LG1 IgG (antibody, V domains shown)", "VH": "EVMLVESGGGLVKPGGSLTLSCAASGFTFTAHAMSWVRQTPEKRLEWVATISGGGTYTYFPDSFQGRFTISSDNAKNTLYLQMSSLRSEDTSMYFCTRHGDYRYAFGYWGQGTLVTVSA", "VL": "VVTQESALTTSPGETVTLTCRSSSGAVTTNNYANWVQEKPDHLFTGLIGGTNNRAPGVPARFSGSLIGDKAALTITGAQTEDEAIYFCALWFSDHWVFGGGTELTVLG"}}, "key": {"[1]": {"system": "human colonic tumor cell line, termed GW-39", "test": "Biodistribution in nude mice bearing GW-39 tumors", "design": "species or system NcR athymic nude mice", "details": "mouse, in vivo", "procedure": "NcR athymic nude mice are implanted with cells of the human colonic tumor cell line, termed GW-39. When tumors have reached an appropriate size (>100 mm^3) agents are injected. The I-125-radioiodinated msAb is given first, and at different later times the In-111-IMP-236 is administered. The latter radiolabeled peptide is also given alone to a control group of animals. Doses given to each animal are 1.5×10^−10 moles of I-125-hMN-14×mLG1 (8 uCi of I-125 per animal), and 1.5×10^−11 moles of In-111-IMP-236. At specified times post-injection of the labeled IMP-236 animals are sacrificed and major internal tissues are collected and quantified for both I-125 and In-111 radioactivity."}, "LG1 IgG antibody": {"system": "LG1 IgG antibody", "test": "Binding of radiolabeled IMP 236 by LG1 on size-exclusion HPLC", "design": "species or system mouse", "details": "mixed with excess LG1; SE-HPLC shift", "procedure": "Typical procedures for the production of radiolabeled DOTA-peptides incorporating, for example, Y-90 and Lu-177 are as follows. Of particular importance is the maximum specific activity achievable, which depends on the quality of the isotope. The radionuclide, obtained in an acidic solution, is treated with an excess of an acetate buffer, to a final pH of 4-6, and added to the DOTA-peptide conjugate, also in acetate buffer. All manipulations are carried out using acid-washed and metal-free components. The labeling mixture is heated at 45° C. for one hour and then allowed to cool to room temperature. Radiolabeled peptides are analyzed by RP-HPLC to determine incorporation, and are tested for binding to LG1, by mixing with a small excess of the LG1 mAb, and testing by analytical size-exclusion HPLC.\nYttrium-90 (^˜400 uCi per kit) is diluted to 1 mL in deionized water and added in one portion to the lyophilized IMP 236 kits of example 12. The kits are heated in a boiling water-bath for 15 min, and the vials then cooled to room temperature. The Y-90 radiolabeled peptides are analyzed by reverse-phase HPLC. […]\nIndium-111 [In-111] radionuclide (^˜300 uCi added per kit) is diluted to 0.5 mL in deionized water and added to the lyophilized kits. […] The labeled peptide vials are cooled to room temperature and evaluated by reverse-phase HPLC. […]"}, "hLL2-DOTA-yttrium": {"system": "hLL2-DOTA-yttrium", "test": "Qualitative binding on size-exclusion HPLC", "details": "SE-HPLC", "from_the_text": "(§1) The msAb, LG1×hMN-14 (Fab′×Fab) is shown by the same analysis to bind to hLL2-DOTA-yttrium."}, "hLL2-DOTA": {"system": "hLL2-DOTA", "test": "Qualitative binding on size-exclusion HPLC", "details": "SE-HPLC", "from_the_text": "as §1"}, "hMN-14-DOTA-yttrium-90": {"system": "hMN-14-DOTA-yttrium-90", "test": "Qualitative binding on size-exclusion HPLC", "details": "SE-HPLC"}}, "note": "Where a SMILES comes first, the peptide text is derived from it. The star is where a group is joined. DOTA = O=C(O)CN1CCN(CC(=O)O)CCN(CC(=O)*)CCN(CC(=O)O)CC1"}
{"molecule": "CC(=O)N[C@@H](Cc1ccccc1)C(=O)N[C@@H](CCCCNC(=O)CN1CCN(CC(=O)O)CCN(CC(=O)O)CCN(CC(=O)O)CC1)C(=O)N[C@@H](Cc1ccc(O)cc1)C(=O)N[C@@H](CCCCNC(=O)CN1CCN(CC(=O)O)CCN(CC(=O)O)CCN(CC(=O)O)CC1)C(N)=O", "note": "[In-111-IMP-236, metal not drawn] (Ac-FK(DOTA)YK(DOTA)-NH2)", "values": [{"measurement": "Blood, 30 minutes", "setting": "[1]", "result": "1.0 ± 0.3 percent injected dose per gram of tissue"}, {"measurement": "Blood, 3 h", "setting": "[1]", "result": "0.0 ± 0.0 percent injected dose per gram of tissue"}, {"measurement": "Blood, 24 h", "setting": "[1]", "result": "0.0 ± 0.0 percent injected dose per gram of tissue"}, {"measurement": "Blood, In-111, 3 h", "setting": "[1]", "result": "0.4 ± 0.0 percent injected dose per gram of tissue"}, {"measurement": "Blood, In-111, 24 h", "setting": "[1]", "result": "0.0 ± 0.0 percent injected dose per gram of tissue"}, {"measurement": "Kidney, 30 minutes", "setting": "[1]", "result": "4.2 ± 0.7 percent injected dose per gram of tissue"}, {"measurement": "Kidney, 3 h", "setting": "[1]", "result": "2.2 ± 0.2 percent injected dose per gram of tissue"}, {"measurement": "Kidney, 24 h", "setting": "[1]", "result": "0.0 ± 0.0 percent injected dose per gram of tissue"}, {"measurement": "Kidney, In-111, 3 h", "setting": "[1]", "result": "2.5 ± 0.6 percent injected dose per gram of tissue"}, {"measurement": "Kidney, In-111, 24 h", "setting": "[1]", "result": "1.0 ± 0.2 percent injected dose per gram of tissue"}, {"measurement": "Liver, 30 minutes", "setting": "[1]", "result": "0.3 ± 0.1 percent injected dose per gram of tissue"}, {"measurement": "Liver, 3 h", "setting": "[1]", "result": "0.2 ± 0.1 percent injected dose per gram of tissue"}, {"measurement": "Liver, 24 h", "setting": "[1]", "result": "0.0 ± 0.0 percent injected dose per gram of tissue"}, {"measurement": "Liver, In-111, 3 h", "setting": "[1]", "result": "0.2 ± 0.0 percent injected dose per gram of tissue"}, {"measurement": "Liver, In-111, 24 h", "setting": "[1]", "result": "0.1 ± 0.0 percent injected dose per gram of tissue"}, {"measurement": "Lungs, 30 minutes", "setting": "[1]", "result": "0.7 ± 0.2 percent injected dose per gram of tissue"}, {"measurement": "Lungs, 3 h", "setting": "[1]", "result": "0.1 ± 0.0 percent injected dose per gram of tissue"}, {"measurement": "Lungs, 24 h", "setting": "[1]", "result": "0.0 ± 0.0 percent injected dose per gram of tissue"}, {"measurement": "Lungs, In-111, 3 h", "setting": "[1]", "result": "0.2 ± 0.0 percent injected dose per gram of tissue"}, {"measurement": "Lungs, In-111, 24 h", "setting": "[1]", "result": "0.0 ± 0.0 percent injected dose per gram of tissue"}, {"measurement": "Spleen, 30 minutes", "setting": "[1]", "result": "0.3 ± 0.1 percent injected dose per gram of tissue"}, {"measurement": "Spleen, 3 h", "setting": "[1]", "result": "0.1 ± 0.0 percent injected dose per gram of tissue"}, {"measurement": "Spleen, 24 h", "setting": "[1]", "result": "0.0 ± 0.0 percent injected dose per gram of tissue"}, {"measurement": "Spleen, In-111, 3 h", "setting": "[1]", "result": "0.2 ± 0.0 percent injected dose per gram of tissue"}, {"measurement": "Spleen, In-111, 24 h", "setting": "[1]", "result": "0.1 ± 0.0 percent injected dose per gram of tissue"}, {"measurement": "Stomach, 30 minutes", "setting": "[1]", "result": "0.2 ± 0.1 percent injected dose per gram of tissue"}, {"measurement": "Stomach, 3 h", "setting": "[1]", "result": "0.0 ± 0.0 percent injected dose per gram of tissue"}, {"measurement": "Stomach, 24 h", "setting": "[1]", "result": "0.0 ± 0.0 percent injected dose per gram of tissue"}, {"measurement": "Stomach, In-111, 3 h", "setting": "[1]", "result": "0.1 ± 0.2 percent injected dose per gram of tissue"}, {"measurement": "Stomach, In-111, 24 h", "setting": "[1]", "result": "0.0 ± 0.0 percent injected dose per gram of tissue"}, {"measurement": "Tumor, 30 minutes", "setting": "[1]", "result": "1.6 ± 0.3 percent injected dose per gram of tissue"}, {"measurement": "Tumor, 3 h", "setting": "[1]", "result": "0.1 ± 0.0 percent injected dose per gram of tissue"}, {"measurement": "Tumor, 24 h", "setting": "[1]", "result": "0.0 ± 0.0 percent injected dose per gram of tissue"}, {"measurement": "Tumor, In-111, 3 h", "setting": "[1]", "result": "6.4 ± 1.1 percent injected dose per gram of tissue"}, {"measurement": "Tumor, In-111, 24 h", "setting": "[1]", "result": "1.3 ± 0.3 percent injected dose per gram of tissue"}, {"measurement": "elimination", "setting": "[1]", "result": "quickly eliminated via the renal system"}]}
{"molecule": "Ac-Phe-Lys(DOTA)-Tyr-Lys(DOTA)-NH2 (Ac-FK(DOTA)YK(DOTA)-NH2; SMILES CC(=O)N[C@@H](Cc1ccccc1)C(=O)N[C@@H](CCCCNC(=O)CN1CCN(CC(=O)O)CCN(CC(=O)O)CCN(CC(=O)O)CC1)C(=O)N[C@@H](Cc1ccc(O)cc1)C(=O)N[C@@H](CCCCNC(=O)CN1CCN(CC(=O)O)CCN(CC(=O)O)CCN(CC(=O)O)CC1)C(N)=O) [IMP 236]", "values": [{"measurement": "binding of radiolabeled peptide by LG1", "setting": "LG1 IgG antibody", "result": "bind strongly"}]}
{"molecule": "B1", "values": [{"measurement": "binding to hLL2-DOTA-yttrium", "setting": "hLL2-DOTA-yttrium", "result": "positive binding"}, {"measurement": "binding to hLL2-DOTA", "setting": "hLL2-DOTA", "result": "positive binding"}, {"measurement": "binding to hMN-14-DOTA-yttrium-90", "setting": "hMN-14-DOTA-yttrium-90", "result": "positive binding"}]}
